According to article PMC8850549 (Toxicology Reports, 2022):
“And” between values parts separate entries of the source, which are not always exact repeats. Equal values may be shown once. “Also recorded” adds a separate entry of the source. Read-outs that look alike come from different tables or passages of the source.

How the values were obtained:
bacterial mutagenicity = conditions: cited from earlier work
[1] = system: Salmonella typhimurium and E. coli strains; assay: Bacterial reverse mutation test; format: cell-based; conditions: rat liver S9, solvent water
TA1535 = conditions: cited from earlier work
[2] = system: Salmonella typhimurium TA100; assay: Bacterial reverse mutation test; format: cell-based; conditions: for mutagenic response (increase in mutation frequencies): with rat liver S9, preincubation and plate incorporation
E. coli WP2 uvrA = assay: Bacterial reverse mutation test; format: cell-based; conditions: for mutagenic response (increase in mutation frequencies): with rat liver S9, preincubation and plate incorporation
[3] = system: Salmonella typhimurium TA1535; assay: Bacterial reverse mutation test; format: cell-based; conditions: for mutagenic response (increase in mutation frequencies): with rat liver S9, preincubation and plate incorporation; for fold increase in mutation frequencies: rat liver S9, 5000 μg/plate
TA98 = assay: Bacterial reverse mutation test; format: cell-based, Salmonella typhimurium; conditions: under any condition (preincubation or plate incorporation, with or without S9)
TA1537 = assay: Bacterial reverse mutation test; format: cell-based, Salmonella typhimurium; conditions: under any condition (preincubation or plate incorporation, with or without S9)
[4] = plate incorporation, solvent DMSO, rat liver S9, at 5000 μg/plate only
[5] = preincubation, solvent water, rat liver S9, 5000 μg/plate

For CN(C)N=O [NDMA, N-nitrosodimethylamine], the “detection of bacterial mutagenicity” value (bacterial mutagenicity; plate incorporation) is listed as “failed”, the “detection of bacterial mutagenicity” value (bacterial mutagenicity; preincubation protocol) is listed as “allowed to detect” and the detection of mutagenicity ([1]; plate incorporation protocol) is listed as “fails; also recorded: no clear positive response”. The detection of mutagenicity ([1]; preincubation protocol) was “allows the detection of mutagenicity”, the mutagenicity (TA1535; hamster S9) was “mutagenic” and the mutagenicity (TA1535; rat S9) was “not with rat S9”.

For CCCCN(CCCC)N=O [NDBA, N-nitrosodibutylamine], the “mutagenic response (increase in mutation frequencies)” value [2] was “relevant increases”, the “fold induction, plate incorporation compared with preincubation” value (E. coli WP2 uvrA; rat liver S9, solvent DMSO) was “higher fold inductions using the plate incorporation protocol” and the “mutagenic response (increase in mutation frequencies)” value (E. coli WP2 uvrA) was “relevant increases”. The “fold induction, plate incorporation compared with preincubation” value ([3]; rat liver S9, solvent DMSO) was “higher fold inductions using the plate incorporation protocol” and the “mutagenic response (increase in mutation frequencies)” value [3] was “relevant increases”.

For CCN(CC)N=O [NDEA, N-nitrosodiethylamine], the “fold increase in mutation frequencies (above threshold)” value [2, 4] was over 2 fold, the “fold change with water compared with DMSO as solvent” value (from here on “fold change with water”) ([2]; preincubation, rat liver S9) was “no change” and the “fold increase in mutation frequencies” value [2, 5] was “about 4 fold”. The “mutagenic response (increase in mutation frequencies)” value [2] was “exponential increase in mutation frequencies”, the mutagenic response (TA98) was “no response” and the “fold increase in mutation frequencies” value (E. coli WP2 uvrA; plate incorporation, solvent DMSO, rat liver S9, top concentration 5000 μg/plate) was 12 fold. For the same molecule, the “fold change with water” value (E. coli WP2 uvrA; preincubation, rat liver S9) was “slightly increased fold changes; also recorded: slightly higher mutation frequencies”, the “fold increase in mutation frequencies” value (E. coli WP2 uvrA; preincubation, solvent DMSO, rat liver S9, 5000 μg/plate) was about 30 fold and the “fold increase in mutation frequencies” value (E. coli WP2 uvrA; [5]) was about 39 fold. The “mutagenic response (increase in mutation frequencies)” value (E. coli WP2 uvrA) was “exponential increase in mutation frequencies”, the mutagenicity (TA1535; hamster S9) was “mutagenic” and the mutagenicity (TA1535; rat S9) was “not with rat S9”. For the same molecule, the “fold increase in mutation frequencies (above threshold)” value [3, 4] was over 3 fold, the “fold change with water” value ([3]; preincubation, rat liver S9) was “slightly increased fold changes; also recorded: slightly higher mutation frequencies” and the “fold increase in mutation frequencies” value ([3]; preincubation, solvent DMSO) was ~5 fold and 4 fold. For the same molecule, the “fold increase in mutation frequencies” value ([3]; preincubation, solvent water) was about 9 fold, the “mutagenic response (increase in mutation frequencies)” value [3] was “exponential increase in mutation frequencies” and the mutagenic response (TA1537) was “no response”.

For CCCN(CCC)N=O [NDPA, N-nitrosodipropylamine], the “mutagenic response (increase in mutation frequencies)” value [2] was “relevant increases”, the “mutagenic response (increase in mutation frequencies)” value (E. coli WP2 uvrA) was “relevant increases” and the “mutagenic response (increase in mutation frequencies)” value [3] was “relevant increases”.
